Columns and labels:
[1] = biological target: CDK2/Cyclin E1 (Homo sapiens, UniProt P24941); assay: CDK2/Cyclin E1 TR-FRET biochemical assay, 1 mM ATP; settings: 0.15 μM Rb (Ser780)-biotin substrate, 90 min reaction, Table 2
[2] = biological target: CDK1/Cyclin B1 (Homo sapiens, UniProt P06493); assay: CDK1/Cyclin B1 TR-FRET biochemical assay, 1 mM ATP; settings: 0.15 μM Rb (Ser780)-biotin substrate, 90 min reaction, Table 2
Sequence of CDK1/Cyclin B1 (P06493 whole entry): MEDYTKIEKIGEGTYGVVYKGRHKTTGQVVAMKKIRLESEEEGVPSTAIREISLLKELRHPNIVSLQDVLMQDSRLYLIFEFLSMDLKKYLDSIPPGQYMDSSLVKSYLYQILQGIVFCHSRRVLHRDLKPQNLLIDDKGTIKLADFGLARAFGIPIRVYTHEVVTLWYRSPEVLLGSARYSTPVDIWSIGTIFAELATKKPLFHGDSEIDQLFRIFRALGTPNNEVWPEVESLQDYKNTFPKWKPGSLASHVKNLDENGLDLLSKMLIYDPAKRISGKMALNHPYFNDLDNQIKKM
Sequence of CDK1/Cyclin B1 (P14635 whole entry partner): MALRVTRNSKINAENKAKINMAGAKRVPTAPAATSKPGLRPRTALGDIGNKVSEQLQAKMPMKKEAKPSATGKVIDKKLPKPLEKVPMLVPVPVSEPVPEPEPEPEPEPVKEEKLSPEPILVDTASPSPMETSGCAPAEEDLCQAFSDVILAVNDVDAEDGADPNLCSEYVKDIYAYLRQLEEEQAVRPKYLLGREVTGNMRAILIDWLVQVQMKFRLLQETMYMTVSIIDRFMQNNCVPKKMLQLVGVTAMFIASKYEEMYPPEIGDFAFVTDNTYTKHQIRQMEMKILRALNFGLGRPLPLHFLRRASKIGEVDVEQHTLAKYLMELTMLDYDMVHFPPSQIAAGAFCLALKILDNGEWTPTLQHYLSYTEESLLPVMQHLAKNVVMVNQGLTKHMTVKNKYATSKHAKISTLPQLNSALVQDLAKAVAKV

Row | Structure (SMILES) | IC50 [1] | IC50 [2]
1 | CCOC(=O)c1nc(C2CCC(c3cc(Nc4ccc5c(c4F)CNS5(=O)=O)n[nH]3)C2)oc1C(C)C (centres unmarked) [Example 115, ethyl 2-(3-(3-((4-fluoro-1,1-dioxido-2,3-dihydrobenzo[d]isothiazol-5-yl)amino)-1H-pyrazol-5-yl)cyclopentyl)-5-isopropyloxazole-4-carboxylate] | 264 nM | > 10000 nM
2 | CC(C)(C)c1ccnc(C2CCC(c3cc(Nc4ccc5c(c4F)CNS5(=O)=O)[nH]n3)C2)c1 (centres unmarked) [Example 117, 5-((3-(3-(4-(tert-butyl)pyridin-2-yl)cyclopentyl)-1H-pyrazol-5-yl)amino)-4-fluoro-2,3-dihydrobenzo[d]isothiazole 1,1-dioxide] | 34 nM | 6770 nM
3 | CC(C)(C)c1cccc(C2CCC(c3cc(Nc4ccc5c(c4F)CNS5(=O)=O)[nH]n3)C2)n1 (centres unmarked) [Example 118, 5-((3-(3-(6-(tert-butyl)pyridin-2-yl)cyclopentyl)-1H-pyrazol-5-yl)amino)-4-fluoro-2,3-dihydrobenzo[d]isothiazole 1,1-dioxide] | 725 nM | > 10000 nM
4 | CC(C)(C)c1ccc(C2CCC(c3cc(Nc4ccc5c(c4F)CNS5(=O)=O)[nH]n3)C2)nc1 (centres unmarked) [Example 119, 5-((3-(3-(5-(tert-butyl)pyridin-2-yl)cyclopentyl)-1H-pyrazol-5-yl)amino)-4-fluoro-2,3-dihydrobenzo[d]isothiazole 1,1-dioxide] | > 10000 nM | > 10000 nM
5 | Cc1cccc(C2CCC(c3cc(Nc4ccc5c(c4F)CNS5(=O)=O)n[nH]3)C2)n1 (centres unmarked) [Example 120, 4-fluoro-5-((5-(3-(6-methylpyridin-2-yl)cyclopentyl)-1H-pyrazol-3-yl)amino)-2,3-dihydrobenzo[d]isothiazole 1,1-dioxide] | 4410 nM | > 10000 nM
6 | CC(C)c1ccnc(C2CCC(c3cc(Nc4ccc5c(c4F)CNS5(=O)=O)n[nH]3)C2)c1 (centres unmarked) [Example 122, 4-fluoro-5-((5-(3-(4-isopropylpyridin-2-yl)cyclopentyl)-1H-pyrazol-3-yl)amino)-2,3-dihydrobenzo[d]isothiazole 1,1-dioxide] | 72 nM | > 10000 nM
7 | Cc1cc(C(C)(C)C)cc(C2CCC(c3cc(Nc4ccc5c(c4F)CNS5(=O)=O)n[nH]3)C2)n1 (centres unmarked) [Example 123, 5-((5-(3-(4-(tert-butyl)-6-methylpyridin-2-yl)cyclopentyl)-1H-pyrazol-3-yl)amino)-4-fluoro-2,3-dihydrobenzo[d]isothiazole 1,1-dioxide] | 1740 nM | > 10000 nM
8 | Cc1ccnc(C2CCC(c3cc(Nc4ccc5c(c4F)CNS5(=O)=O)n[nH]3)C2)n1 (centres unmarked) [Example 124, 4-fluoro-5-((5-(3-(4-methylpyrimidin-2-yl)cyclopentyl)-1H-pyrazol-3-yl)amino)-2,3-dihydrobenzo[d]isothiazole 1,1-dioxide] | 107 nM | 8470 nM
9 | CC(C)(C)c1cc(C2CCC(c3cc(Nc4ccc5c(c4F)CNS5(=O)=O)n[nH]3)C2)ccn1 (centres unmarked) [Example 129, 5-((5-(3-(2-(tert-butyl)pyridin-4-yl)cyclopentyl)-1H-pyrazol-3-yl)amino)-4-fluoro-2,3-dihydrobenzo[d]isothiazole 1,1-dioxide] | 8020 nM | > 10000 nM
10 | CC(C)(C)c1cc(C2CCC(c3cc(Nc4ccc5c(c4F)CNS5(=O)=O)n[nH]3)C2)ncn1 (centres unmarked) [Example 130, 5-((5-(3-(6-(tert-butyl)pyrimidin-4-yl)cyclopentyl)-1H-pyrazol-3-yl)amino)-4-fluoro-2,3-dihydrobenzo[d]isothiazole 1,1-dioxide] | 2120 nM | > 10000 nM
11 | CC(C)(C)c1cnnc(C2CCC(c3cc(Nc4ccc5c(c4F)CNS5(=O)=O)n[nH]3)C2)c1 (centres unmarked) [Example 131, 5-((5-(3-(5-(tert-butyl)pyridazin-3-yl)cyclopentyl)-1H-pyrazol-3-yl)amino)-4-fluoro-2,3-dihydrobenzo[d]isothiazole 1,1-dioxide] | 167 nM | > 10000 nM
12 | CC(C)(C)c1cccc(C2CCC(c3cc(Nc4ccc5c(c4F)CNS5(=O)=O)n[nH]3)C2)c1 (centres unmarked) [Example 132, 5-((5-(3-(3-(tert-butyl)phenyl)cyclopentyl)-1H-pyrazol-3-yl)amino)-4-fluoro-2,3-dihydrobenzo[d]isothiazole 1,1-dioxide] | > 10000 nM | > 10000 nM
13 | CC(C)(C)c1cnc(C2CCC(c3cc(Nc4ccc5c(c4)CS(=O)(=O)N5)n[nH]3)C2)s1 (centres unmarked) [Example 137, 5-((5-(3-(5-(tert-butyl)thiazol-2-yl)cyclopentyl)-1H-pyrazol-3-yl)amino)-1,3-dihydrobenzo[c]isothiazole 2,2-dioxide] | 2030 nM | > 10000 nM
14 | CN1c2ccc(Nc3cc([C@H]4CC[C@@H](c5ncc(C(C)(C)C)o5)C4)[nH]n3)cc2CS1(=O)=O [Example 141, 5-((5-((1S,3R)-3-(5-(tert-butyl)oxazol-2-yl)cyclopentyl)-1H-pyrazol-3-yl)amino)-1-methyl-1,3-dihydrobenzo[c]isothiazole 2,2-dioxide] | 0.6 nM | 135 nM
15 | CC(C)c1cnc(C2CCC(c3cc(Nc4ccc5c(c4)CS(=O)(=O)N5C)n[nH]3)C2)o1 (centres unmarked) [Example 143, 5-((5-(3-(5-isopropyloxazol-2-yl)cyclopentyl)-1H-pyrazol-3-yl)amino)-1-methyl-1,3-dihydrobenzo[c]isothiazole 2,2-dioxide] | 14 nM | 1320 nM
16 | CC(C)(C)c1coc(C2CCC(c3cc(Nc4ccc5c(c4F)CS(=O)(=O)N5)n[nH]3)C2)n1 (centres unmarked) [Example 148, 5-((5-(3-(4-(tert-butyl)oxazol-2-yl)cyclopentyl)-1H-pyrazol-3-yl)amino)-4-fluoro-1,3-dihydrobenzo[c]isothiazole 2,2-dioxide] | 78 nM | 7400 nM
17 | CC(C)(C)c1ccc(C2CCC(c3cc(Nc4ccc5c(c4F)CS(=O)(=O)N5)n[nH]3)C2)o1 (centres unmarked) [Example 153, 5-((5-(3-(5-(tert-butyl)furan-2-yl)cyclopentyl)-1H-pyrazol-3-yl)amino)-4-fluoro-1,3-dihydrobenzo[c]isothiazole 2,2-dioxide] | 1020 nM | > 10000 nM
18 | Cc1nc(C2CCC(c3cc(Nc4ccc5c(c4F)CS(=O)(=O)N5)n[nH]3)C2)oc1C(C)(C)C (centres unmarked) [Example 154, 5-((5-(3-(5-(tert-butyl)-4-methyloxazol-2-yl)cyclopentyl)-1H-pyrazol-3-yl)amino)-4-fluoro-1,3-dihydrobenzo[c]isothiazole 2,2-dioxide] | 9.6 nM | 540 nM

Further compounds by falling IC50 [1], results first:

Row | IC50 [1] | IC50 [2] | Structure (SMILES)
19 | 3870 nM | > 10000 nM | COc1cccc(C2CCC(c3cc(Nc4ccc5c(c4F)CNS5(=O)=O)n[nH]3)C2)n1 (centres unmarked) [Example 121, 4-fluoro-5-((5-(3-(6-methoxypyridin-2-yl)cyclopentyl)-1H-pyrazol-3-yl)amino)-2,3-dihydrobenzo[d]isothiazole 1,1-dioxide]
20 | 1400 nM | > 10000 nM | C=C(C)c1cc(C2CCC(c3cc(Nc4ccc5c(c4F)CS(=O)(=O)N5)n[nH]3)C2)n[nH]1 (centres unmarked) [Example 151, 4-fluoro-5-((5-(3-(5-(prop-1-en-2-yl)-1H-pyrazol-3-yl)cyclopentyl)-1H-pyrazol-3-yl)amino)-1,3-dihydrobenzo[c]isothiazole 2,2-dioxide]
21 | 1250 nM | > 10000 nM | CC(C)(C)c1cncc(C2CCC(c3cc(Nc4ccc5c(c4F)CNS5(=O)=O)n[nH]3)C2)c1 (centres unmarked) [Example 128, 5-((5-(3-(5-(tert-butyl)pyridin-3-yl)cyclopentyl)-1H-pyrazol-3-yl)amino)-4-fluoro-2,3-dihydrobenzo[d]isothiazole 1,1-dioxide]
22 | 189 nM | > 10000 nM | CC(C)(O)c1cc(C2CCC(c3cc(Nc4ccc5c(c4F)CS(=O)(=O)N5)n[nH]3)C2)n[nH]1 (centres unmarked) [Example 150, 4-fluoro-5-((5-(3-(5-(2-hydroxypropan-2-yl)-1H-pyrazol-3-yl)cyclopentyl)-1H-pyrazol-3-yl)amino)-1,3-dihydrobenzo[c]isothiazole 2,2-dioxide]
23 | 98 nM | > 10000 nM | O=S1(=O)NCc2c1ccc(Nc1cc(C3CCC(c4ncc(C5CC5)o4)C3)[nH]n1)c2F (centres unmarked) [Example 116, 5-((5-(3-(5-cyclopropyloxazol-2-yl)cyclopentyl)-1H-pyrazol-3-yl)amino)-4-fluoro-2,3-dihydrobenzo[d]isothiazole 1,1-dioxide]
24 | 60 nM | 4950 nM | CC(C)(C)c1coc(C2CCC(c3cc(Nc4ccc5c(c4)CS(=O)(=O)N5)n[nH]3)C2)n1 (centres unmarked) [Example 136, 5-((5-(3-(4-(tert-butyl)oxazol-2-yl)cyclopentyl)-1H-pyrazol-3-yl)amino)-1,3-dihydrobenzo[c]isothiazole 2,2-dioxide]
25 | 40 nM | 2760 nM | CCc1ccnc(C2CCC(c3cc(Nc4ccc5c(c4F)CNS5(=O)=O)n[nH]3)C2)n1 (centres unmarked) [Example 125, 5-((5-(3-(4-ethylpyrimidin-2-yl)cyclopentyl)-1H-pyrazol-3-yl)amino)-4-fluoro-2,3-dihydrobenzo[d]isothiazole 1,1-dioxide]
26 | 12 nM | 2530 nM | CN1c2ccc(Nc3cc([C@@H]4CC[C@H](c5ncc(C(C)(C)C)o5)C4)[nH]n3)cc2CS1(=O)=O [Example 142, 5-((5-((1R,3S)-3-(5-(tert-butyl)oxazol-2-yl)cyclopentyl)-1H-pyrazol-3-yl)amino)-1-methyl-1,3-dihydrobenzo[c]isothiazole 2,2-dioxide]
27 | 6 nM | 624 nM | CN1c2ccc(Nc3cc(C4CCC(c5ncc(C(C)(C)C)o5)C4)[nH]n3)cc2CS1(=O)=O (centres unmarked) [Example 140, 5-((5-(3-(5-(tert-butyl)oxazol-2-yl)cyclopentyl)-1H-pyrazol-3-yl)amino)-1-methyl-1,3-dihydrobenzo[c]isothiazole 2,2-dioxide]
28 | 3.9 nM | 669 nM | CC(C)c1ccnc(C2CCC(c3cc(Nc4ccc5c(c4F)CNS5(=O)=O)n[nH]3)C2)n1 (centres unmarked) [Example 126, 4-fluoro-5-((5-(3-(4-isopropylpyrimidin-2-yl)cyclopentyl)-1H-pyrazol-3-yl)amino)-2,3-dihydrobenzo[d]isothiazole 1,1-dioxide]

Source: patent US20260200897A1, “4-((5-(3-(4-(PYRIDIN-2-YL)CYCLOPENTYL)-1H-PYRAZOL-3-YL)AMINO)-BENZENESULFONAMIDE DERIVATIVES AND SIMILAR COMPOUNDS AS CDK INHIBITORS FOR THE TREATMENT OF CANCER” (BeOne Medicines I GmbH, priority 2023, published 2026)
